# Earlier results in patent publication EP3572069A1, “INCREASING SOLUBILITY AND BIOAVAILABILITY OF ENZALUTAMIDE” (Zentiva K.S., priority 2018, dated 2019).
# Experiments:
# [1] = background statement, no test described
# [2] = not told
Compound,Solubility [1],Permeability [2]
"CNC(=O)c1ccc(N2C(=S)N(c3ccc(C#N)c(C(F)(F)F)c3)C(=O)C2(C)C)cc1F [Crystalline enzalutamide, 4-(3-(4-cyano-3-(trifluoromethyl)phenyl)-5,5-dimethyl-4-oxo-2-thioxo-1-imidazolidinyl)-2-fluoro-N-methyl-benzamide]",very poorly soluble,–
"CNC(=O)c1ccc(N2C(=S)N(c3ccc(C#N)c(C(F)(F)F)c3)C(=O)C2(C)C)cc1F [Amorphous form of enzalutamide, 4-(3-(4-cyano-3-(trifluoromethyl)phenyl)-5,5-dimethyl-4-oxo-2-thioxo-1-imidazolidinyl)-2-fluoro-N-methyl-benzamide]",dissolves better,–
"CNC(=O)c1ccc(N2C(=S)N(c3ccc(C#N)c(C(F)(F)F)c3)C(=O)C2(C)C)cc1F [Enzalutamide, 4-(3-(4-cyano-3-(trifluoromethyl)phenyl)-5,5-dimethyl-4-oxo-2-thioxo-1-imidazolidinyl)-2-fluoro-N-methyl-benzamide]",–,high permeability
